What was measured:
Experiment in all cases: Enzyme Assay
PIK3CA (human) = PIK3CA (human) (UniProt P42336)
PIK3CB (Human) = PIK3CB (Human) (UniProt P42338)
PIK3CD (Human) = PIK3CD (Human) (UniProt O00329)
PIK3CG (human) = PIK3CG (human) (UniProt P48736)
Sequence of PIK3CG (human) (P48736 whole entry, looked up): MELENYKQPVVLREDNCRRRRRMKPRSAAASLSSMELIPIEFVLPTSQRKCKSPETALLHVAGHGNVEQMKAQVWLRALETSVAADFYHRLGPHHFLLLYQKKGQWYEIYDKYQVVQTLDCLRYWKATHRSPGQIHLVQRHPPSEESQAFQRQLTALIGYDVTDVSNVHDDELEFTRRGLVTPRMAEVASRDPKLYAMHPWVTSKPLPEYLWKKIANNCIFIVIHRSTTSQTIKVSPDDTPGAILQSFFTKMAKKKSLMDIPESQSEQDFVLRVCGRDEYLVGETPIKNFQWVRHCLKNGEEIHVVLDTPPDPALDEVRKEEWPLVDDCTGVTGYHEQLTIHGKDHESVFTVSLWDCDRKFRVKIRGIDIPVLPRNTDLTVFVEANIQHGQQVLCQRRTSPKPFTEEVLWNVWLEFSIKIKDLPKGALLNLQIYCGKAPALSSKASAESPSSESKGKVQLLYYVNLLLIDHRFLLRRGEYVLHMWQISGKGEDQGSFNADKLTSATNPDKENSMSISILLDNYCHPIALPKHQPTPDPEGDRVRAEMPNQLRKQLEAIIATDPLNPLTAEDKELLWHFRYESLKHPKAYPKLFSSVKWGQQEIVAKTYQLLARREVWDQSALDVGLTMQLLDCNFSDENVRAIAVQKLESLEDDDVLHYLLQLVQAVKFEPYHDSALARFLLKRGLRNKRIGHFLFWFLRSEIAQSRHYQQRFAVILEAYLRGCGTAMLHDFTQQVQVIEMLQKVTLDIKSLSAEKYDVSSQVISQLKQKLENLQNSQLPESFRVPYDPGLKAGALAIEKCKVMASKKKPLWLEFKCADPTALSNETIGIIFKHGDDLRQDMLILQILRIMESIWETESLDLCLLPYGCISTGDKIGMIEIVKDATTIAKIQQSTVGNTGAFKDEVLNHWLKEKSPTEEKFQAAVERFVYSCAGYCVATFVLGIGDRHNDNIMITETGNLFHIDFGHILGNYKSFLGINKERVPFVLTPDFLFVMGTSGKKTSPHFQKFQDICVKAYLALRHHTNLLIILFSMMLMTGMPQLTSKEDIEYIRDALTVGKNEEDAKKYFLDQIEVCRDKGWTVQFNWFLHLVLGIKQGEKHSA

Sequence of PIK3CA (human) (P42336 whole entry, looked up): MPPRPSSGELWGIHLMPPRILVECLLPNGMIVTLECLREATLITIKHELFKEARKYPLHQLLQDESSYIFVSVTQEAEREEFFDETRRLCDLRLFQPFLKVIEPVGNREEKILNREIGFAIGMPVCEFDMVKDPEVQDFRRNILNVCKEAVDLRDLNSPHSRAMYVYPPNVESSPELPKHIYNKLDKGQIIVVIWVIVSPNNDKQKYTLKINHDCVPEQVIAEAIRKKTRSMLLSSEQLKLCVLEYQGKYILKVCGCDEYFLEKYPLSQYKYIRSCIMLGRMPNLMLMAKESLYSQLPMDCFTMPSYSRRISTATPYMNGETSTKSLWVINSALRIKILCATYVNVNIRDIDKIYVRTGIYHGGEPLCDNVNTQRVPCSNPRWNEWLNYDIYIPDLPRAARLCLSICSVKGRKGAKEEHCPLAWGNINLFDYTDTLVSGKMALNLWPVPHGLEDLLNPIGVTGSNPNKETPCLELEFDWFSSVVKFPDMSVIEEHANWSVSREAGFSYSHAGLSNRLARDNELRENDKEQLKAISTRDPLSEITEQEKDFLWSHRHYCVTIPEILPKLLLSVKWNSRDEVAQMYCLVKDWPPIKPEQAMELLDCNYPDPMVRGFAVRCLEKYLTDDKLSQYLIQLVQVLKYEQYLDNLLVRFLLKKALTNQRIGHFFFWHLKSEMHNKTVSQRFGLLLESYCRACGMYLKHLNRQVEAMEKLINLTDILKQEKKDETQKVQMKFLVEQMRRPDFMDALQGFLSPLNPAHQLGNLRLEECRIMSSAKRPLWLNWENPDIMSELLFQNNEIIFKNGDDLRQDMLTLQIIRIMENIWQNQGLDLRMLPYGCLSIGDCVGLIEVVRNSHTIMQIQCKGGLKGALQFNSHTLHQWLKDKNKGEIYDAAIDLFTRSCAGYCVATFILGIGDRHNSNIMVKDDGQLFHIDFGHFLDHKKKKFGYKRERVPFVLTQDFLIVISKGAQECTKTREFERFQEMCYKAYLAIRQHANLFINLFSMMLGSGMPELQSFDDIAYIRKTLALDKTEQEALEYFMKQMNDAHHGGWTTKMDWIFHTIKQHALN
Sequence of PIK3CB (Human) (P42338 whole entry, looked up): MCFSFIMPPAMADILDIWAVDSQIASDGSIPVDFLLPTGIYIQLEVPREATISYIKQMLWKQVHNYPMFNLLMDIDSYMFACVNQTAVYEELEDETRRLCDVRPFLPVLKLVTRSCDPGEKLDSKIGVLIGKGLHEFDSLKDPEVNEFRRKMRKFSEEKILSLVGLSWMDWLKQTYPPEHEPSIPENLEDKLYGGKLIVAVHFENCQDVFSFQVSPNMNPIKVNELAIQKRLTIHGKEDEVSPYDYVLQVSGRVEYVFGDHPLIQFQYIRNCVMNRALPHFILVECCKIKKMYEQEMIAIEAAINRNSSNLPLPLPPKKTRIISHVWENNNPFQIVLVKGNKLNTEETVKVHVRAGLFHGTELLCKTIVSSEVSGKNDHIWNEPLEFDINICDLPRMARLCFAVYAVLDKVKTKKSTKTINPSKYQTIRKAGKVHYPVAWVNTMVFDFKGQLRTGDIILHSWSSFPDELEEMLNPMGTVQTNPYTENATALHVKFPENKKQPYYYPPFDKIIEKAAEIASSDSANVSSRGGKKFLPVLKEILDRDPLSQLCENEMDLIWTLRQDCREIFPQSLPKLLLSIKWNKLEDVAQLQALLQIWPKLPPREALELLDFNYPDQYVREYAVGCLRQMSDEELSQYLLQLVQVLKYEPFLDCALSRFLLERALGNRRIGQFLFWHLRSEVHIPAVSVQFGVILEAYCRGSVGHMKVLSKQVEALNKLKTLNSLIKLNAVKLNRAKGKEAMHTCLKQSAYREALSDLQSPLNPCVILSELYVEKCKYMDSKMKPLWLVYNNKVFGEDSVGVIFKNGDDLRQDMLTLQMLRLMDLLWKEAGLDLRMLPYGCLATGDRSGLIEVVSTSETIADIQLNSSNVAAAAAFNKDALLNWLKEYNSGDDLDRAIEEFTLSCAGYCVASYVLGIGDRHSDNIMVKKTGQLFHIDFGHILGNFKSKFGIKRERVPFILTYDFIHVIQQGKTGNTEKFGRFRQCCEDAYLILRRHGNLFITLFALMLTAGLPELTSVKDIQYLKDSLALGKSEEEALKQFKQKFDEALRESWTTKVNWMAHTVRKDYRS
Sequence of PIK3CD (Human) (O00329 whole entry, looked up): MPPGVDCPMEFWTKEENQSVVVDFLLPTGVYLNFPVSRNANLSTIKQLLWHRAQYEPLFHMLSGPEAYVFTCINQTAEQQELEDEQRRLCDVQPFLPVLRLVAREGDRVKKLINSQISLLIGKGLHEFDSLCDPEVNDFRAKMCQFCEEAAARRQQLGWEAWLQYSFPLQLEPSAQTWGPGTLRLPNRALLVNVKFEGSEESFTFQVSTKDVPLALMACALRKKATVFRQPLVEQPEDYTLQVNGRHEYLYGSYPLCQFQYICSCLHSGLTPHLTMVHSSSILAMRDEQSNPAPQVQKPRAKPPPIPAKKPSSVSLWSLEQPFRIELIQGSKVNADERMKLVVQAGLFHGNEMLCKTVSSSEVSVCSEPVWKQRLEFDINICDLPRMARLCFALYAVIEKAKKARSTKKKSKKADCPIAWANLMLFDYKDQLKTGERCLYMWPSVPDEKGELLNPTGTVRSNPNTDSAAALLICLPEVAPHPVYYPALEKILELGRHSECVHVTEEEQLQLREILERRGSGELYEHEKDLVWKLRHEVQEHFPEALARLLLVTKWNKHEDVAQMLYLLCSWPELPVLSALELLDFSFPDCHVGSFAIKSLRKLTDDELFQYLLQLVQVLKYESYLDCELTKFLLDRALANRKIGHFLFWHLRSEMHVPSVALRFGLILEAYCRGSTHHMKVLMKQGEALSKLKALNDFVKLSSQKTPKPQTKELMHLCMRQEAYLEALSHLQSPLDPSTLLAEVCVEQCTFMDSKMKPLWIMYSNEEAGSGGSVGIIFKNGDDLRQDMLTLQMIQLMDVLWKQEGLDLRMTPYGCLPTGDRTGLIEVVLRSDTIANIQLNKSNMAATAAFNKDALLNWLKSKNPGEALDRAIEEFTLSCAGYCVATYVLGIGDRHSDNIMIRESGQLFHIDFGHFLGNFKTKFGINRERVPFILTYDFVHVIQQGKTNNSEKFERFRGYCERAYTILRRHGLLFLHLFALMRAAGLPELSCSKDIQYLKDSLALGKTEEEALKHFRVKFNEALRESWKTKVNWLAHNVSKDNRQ

C[C@@H](N)CC(=O)N1CCN(c2nc(-c3cccc(O)c3)nc(N3CCOCC3)n2)CC1
IC50 (PIK3CA (human)): 2.2 µM
IC50 (PIK3CB (Human)): 1.7 µM
IC50 (PIK3CD (Human)): 1.3 µM
IC50 (PIK3CG (human)): 16 µM

Cc1cc(C(C)Nc2ccccc2)c2nc(N3CCOCC3)cc(=O)n2c1 (configuration not stated)
IC50 (PIK3CA (human)): 5.07 µM
IC50 (PIK3CD (Human)): 0.376 µM

O=C(C1CCNCC1)N1CCN(c2nc(-c3cccc(O)c3)nc(N3CCOCC3)n2)CC1
IC50 (PIK3CA (human)): 1.5 µM
IC50 (PIK3CB (Human)): 3.2 µM
IC50 (PIK3CD (Human)): 0.33 µM
IC50 (PIK3CG (human)): 6.5 µM

N[C@@H](Cc1ccccc1)C(=O)N1CCN(c2nc(N3CCOCC3)nc(-n3c(C(F)F)nc4ccccc43)n2)CC1
IC50 (PIK3CG (human)): > 100 µM

N[C@@H](Cc1ccccc1)C(=O)N1CCN(c2nc(-c3cccc(O)c3)nc(N3CCOCC3)n2)CC1
IC50 (PIK3CA (human)): 19 µM
IC50 (PIK3CB (Human)): 0.19 µM
IC50 (PIK3CD (Human)): 8.9 µM
IC50 (PIK3CG (human)): > 100 µM

CCC(C)[C@H](N)C(=O)N1CCN(c2nc(N3CCOCC3)nc(-n3c(C(F)F)nc4ccccc43)n2)CC1 (some centres not stated)
IC50 (PIK3CB (Human)): 0.067 µM
IC50 (PIK3CD (Human)): 1 µM
IC50 (PIK3CG (human)): > 10 µM

O=C(C[C@H]1CCCN1)N1CCN(c2nc(-c3cccc(O)c3)nc(N3CCOCC3)n2)CC1
IC50 (PIK3CA (human)): 4.4 µM
IC50 (PIK3CB (Human)): 1.6 µM
IC50 (PIK3CD (Human)): 0.026 µM
IC50 (PIK3CG (human)): 5.5 µM

CSCC[C@H](N)C(=O)N1CCN(c2nc(N3CCOCC3)nc(-n3c(C(F)F)nc4ccccc43)n2)CC1
IC50 (PIK3CA (human)): 13 µM
IC50 (PIK3CB (Human)): 0.483 µM
IC50 (PIK3CD (Human)): 2.95 µM

CC(C)C[C@H](N)CC(=O)N1CCN(c2nc(-c3cccc(O)c3)nc(N3CCOCC3)n2)CC1
IC50 (PIK3CA (human)): 21 µM
IC50 (PIK3CB (Human)): 19 µM
IC50 (PIK3CD (Human)): 9.1 µM
IC50 (PIK3CG (human)): > 100 µM

N[C@H](CC(=O)N1CCN(c2nc(N3CCOCC3)nc(-n3c(C(F)F)nc4ccccc43)n2)CC1)Cc1ccccc1
IC50 (PIK3CA (human)): 26 µM
IC50 (PIK3CB (Human)): 7.1 µM
IC50 (PIK3CD (Human)): 2.8 µM
IC50 (PIK3CG (human)): > 100 µM

NCCCC(=O)N1CCN(c2nc(N3CCOCC3)nc(-n3c(C(F)F)nc4ccccc43)n2)CC1
IC50 (PIK3CA (human)): 0.85 µM
IC50 (PIK3CB (Human)): 0.081 µM
IC50 (PIK3CD (Human)): 0.077 µM
IC50 (PIK3CG (human)): 7.5 µM

N[C@H](Cc1ccccc1)C(=O)N1CCN(c2nc(N3CCOCC3)nc(-n3c(C(F)F)nc4ccccc43)n2)CC1
IC50 (PIK3CB (Human)): 78 µM
IC50 (PIK3CG (human)): 58 µM

C[C@H](N)CC(=O)N1CCN(c2nc(N3CCOCC3)nc(-n3c(C(F)F)nc4ccccc43)n2)CC1
IC50 (PIK3CA (human)): 3 µM
IC50 (PIK3CB (Human)): 1.3 µM
IC50 (PIK3CD (Human)): 0.11 µM
IC50 (PIK3CG (human)): 7.5 µM

N[C@H](CC(=O)N1CCN(c2nc(-c3cccc(O)c3)nc(N3CCOCC3)n2)CC1)Cc1ccccc1
IC50 (PIK3CA (human)): 62 µM
IC50 (PIK3CB (Human)): 1.8 µM
IC50 (PIK3CD (Human)): 17 µM
IC50 (PIK3CG (human)): > 100 µM

Source: the Kinase Knowledgebase extract (Sharma et al. 2016)
